Measurements reported in patent publication US8252942B2, “Substituted imidazoline compounds” (Board of Trustees of Michigan State University, priority 2008, dated 2012).

What was measured:
RPMI-8226 cells = assay: Cell death in multiple myeloma cells, MTS assay; format: cell-based; conditions: Homo sapiens, RPMI-8226, 24 h
Experimental: RPMI-8226 cells were treated with various concentrations of TCH-013 in duplicate and incubated for 24 hours. Percent survival was extrapolated based on mitochondrial activity as determined by MTS assay.
(§1) Given the critical role NF-κB-mediated IL-6 production plays in the growth and […] of multiple myeloma, we investigated the use of TCH-013 in somewhat more detail in a MM cell line (RPMI-8226).

[1] = system: white blood cells (lymphocytes) in human blood; assay: Cytotoxicity towards lymphocytes in human blood; format: cell-based; conditions: human blood exposed 24 hours, lymphocyte survival, effective concentrations (<20 μM) (FIG. 11)
Experimental: Human blood was exposed to TCH-013 (imidazoline 1) for 24 hours at various concentrations and the lymphocytes were evaluated for survival.
as §1

SMILES: CCOC(=O)[C@@]1(c2ccccc2)N=C(c2ccccc2)N(Cc2ccccc2)[C@H]1c1ccccc1 (racemic) [TCH-013]
- CC50 (RPMI-8226 cells): 4 µM
- cytotoxicity towards white blood cells [1]: no significant cytotoxicity

SMILES: COc1cccc2c1C(=O)c1c(O)c3c(c(O)c1C2=O)C[C@@](O)(C(=O)CO)C[C@@H]3O[C@H]1C[C@H](N)[C@H](O)[C@H](C)O1 [doxorubicin]
- CC50 (RPMI-8226 cells): 1.2 µM

SMILES: N[C@@H](Cc1ccc(N(CCCl)CCCl)cc1)C(=O)O [melphalan]
- CC50 (RPMI-8226 cells): 30.6 µM
